Patent US11369662B2 (The Medical College of Wisconsin, Inc., priority 2014, dated 2022)
Several values for one entry are separate records, joined by “and”; a condition that tells them apart may be missing. Equal values may be shown once. Marks after values point to notes of the source that are not given here. Blank lines part the entries; values can stand above or below the compound they belong to. Non-standard residues stand in square brackets, D forms with d. Residues, ends and D or L forms follow the SMILES beside them. sY = N[C@@H](Cc1ccc(OS(=O)(=O)O)cc1)C(=O)O

Assays:
CXCL121 = target: T1, CXCL121 (Homo sapiens, UniProt P48061, I79C/L76C); experiment: 2D NMR (1H-15N HSQC) titration of CXCR4 peptides into CXCL121; assay type: binding; conditions: for ΔG: ΔG = −RT ln Kd @ 298 K
T1 construct: made in house
Experimental: (§1) NMR spectroscopy. All NMR spectra were acquired on a Bruker DRX 600 MHz spectrometer equipped with a ^1H, ^15N, ^13C TXI cryoprobe at 298 K. Experiments were performed with either 50 μM [U-^15N]-CXCL12WT, -CXCL121, or -CXCL122 proteins in a solution containing 25 mM deuterated MES (pH 6.8), 10% (v/v) D2O, and 0.02% (w/v) NaN3. Full-length CXCR41-38 peptide titrations required 20 μM [U-^15N]-CXCL121 and -CXCL122 protein samples. Sulfated CXCR4 peptides were reconstituted at 100 mM in 25 mM deuterated MES, 10% (v/v) D2O, and 0.02% (w/v) NaN3 buffer. Unsulfated CXCR4 peptides were similarly reconstituted to 15 mM. Two separate 4ISIYTSD10 (SEQ ID NO:8) peptide samples were reconstituted at 10 mM and 15 mM peptide in 25 mM deuterated MES, 10% (v/v) D20, 0.02% (w/v) NaN3 buffer, from lyophilized powder.
(§2) Total peptide additions differed for individual peptide titrations but ranged from 0-160 equivalencies. Spectra were processed using in-house scripts and chemical shift tracking was performed using CARA software. Combined ^1H/^15N chemical shift perturbations were calculated as ((5 ΔδH)^2+(ΔδNH)^2)^0.5, where δH and δNH are the amide proton and nitrogen chemical shifts, respectively. Equilibrium dissociation constants (Kd) were determined by non-linear fitting of the combined ^1H/^15NH chemical shift perturbations as a function of peptide concentration to a single-site quadratic equation. For a given interaction, residues with the largest chemical shift perturbations were fitted individually. The resulting Kd values and their respective fitting errors were then averaged to produce the reported affinity and standard deviation for that interaction.

CXCL122 = target: T2, CXCL122 (Homo sapiens, UniProt P48061, A86C/L57C); experiment: 2D NMR (1H-15N HSQC) titration of CXCR4 peptides into CXCL122; assay type: binding; conditions: for ΔG: ΔG = −RT ln Kd @ 298 K
T2 construct: made in house
Experimental: as §1, §2

CXCL12WT [1] = target: T3, CXCL12WT (Homo sapiens, UniProt P48061); conditions: ΔG = −RT ln Kd @ 298 K; calculated from Veldkamp et al. (32); cited from earlier work
T3 construct: made in house

CXCL12WT [2] = target: T3, CXCL12WT; experiment: 2D NMR (1H-15N HSQC) titration of CXCR4 peptides into CXCL12WT; assay type: binding; conditions: for ΔG: ΔG = −RT ln Kd @ 298 K
Experimental: as §1, §2

CXCL12WT dimerization = target: T4, CXCL12WT dimerization (Homo sapiens, UniProt P48061); experiment: Intrinsic tryptophan fluorescence polarization assay of CXCL12WT dimerization; assay type: binding; conditions: for coupling energy linking CXCL12 dimerization to sTyr21 pocket binding: thermodynamic cycle
T4 construct: made in house
Experimental: Fluorescence polarization assay. Fluorescence polarization (FP) assays were performed on a PTI spectrofluorometer equipped with automated polarizers, using a time base polarization method provided by the program Felix32. […] Experiments were performed in duplicate and the reported dimerization Kd values reflect the average of both experiments.

THP-1 cells = experiment: THP-1 chemotaxis (Transwell); assay type: cell-based; conditions: 3 h stimulation
Experimental: THP-1 chemotaxis. Chemotaxis experiments were performed using Tranwell ([…]; Costar) in 24-well format. […] THP-1 cells were washed twice and […] cells were added to the upper chamber. Plates were incubated for 3 h at 37° C., 5% CO2. Following incubation, Transwell membranes were removed and cells that migrated into the lower chamber were counted using a TC-10 Automated Cell Counter (BioRad) and hemocytometer. The chemotactic index was calculated as the difference in migrated cell number between those exposed to chemokine and the vehicle control.

NALM6 cells = experiment: NALM6 chemotaxis (Boyden chamber); assay type: cell-based; conditions: 90 min stimulation; relative to CXCL12WT
Experimental: NALM6 chemotaxis. NALM6 cells were grown in RPMI-1640 supplemented with 10% FBS, 100 U/mL penicillin-streptomycin, 2 mM glutamine, 50 μM […], non-essential amino acids, 1 mM Na-pyruvate and 25 mM HEPES buffer (pH 7.3). Chemotaxis assays were performed in triplicate in 48-well Boyden chambers (NeuroProbe), using 5 μm pore-sized polyvinylpyrrolidone-free polycarbonate membranes. […] Cells ([…] per well) resuspended in chemotaxis medium were added to the upper well and incubated for 90 min at 37° C. in 5% CO2 atmosphere. Cells were removed from the upper part of the membrane with a rubber policeman. Cells attached to the lower side of the membrane were fixed and stained as described. Migrated cells were counted in five randomly selected fields of 1000-fold magnification.
NALM6 chemotaxis. NALM6 cells were grown in RPMI-1640 supplemented with 10% FBS, 100 U/mL penicillin-streptomycin, 2 mM glutamine, 50 μM 2-mercaptoethanol, non-essential amino acids, 1 mM Na-pyruvate and 25 mM HEPES buffer (pH 7.3). Chemotaxis assays were performed in triplicate in 48-well Boyden chambers (NeuroProbe), using 5 μm pore-sized polyvinylpyrrolidone-free polycarbonate membranes. […] Migrated cells were counted in five randomly selected fields of 1000-fold magnification.

MiaPaCa2 cells = experiment: MiaPaCa2 chemotaxis (Transwell); assay type: cell-based; conditions: 6 h stimulation; relative to CXCL12WT
Experimental: MiaPaCa2 chemotaxis. Chemotactic migration of pancreatic cancer MiaPaCa2 cells was performed as previously described using Transwell plates coated with 15 ug/ml collagen. Briefly, MiaPaCa2 cells were serum starved for 2 hours, lifted using enzyme-free dissociation buffer, washed and then counted using a hemocytometer. 100,000 cells in 10 uL of serum free media were plated into the top chamber of each Transwell. The bottom chamber of each Transwell contained each stimulant in 500 uL serum free media. MiaPaCa2 cells were allowed to migrate for 6 hours, after which the cells remaining on the top of the chamber were swabbed out. Plates were then fixed in 4% paraformaldehyde and stained with DAPI. Migrated cells were visualized and counted by fluorescence microscopy, with 5 representative high-powered fields taken per well.

U-937 cells = experiment: Agarose microdroplet assay of U-937 migration; assay type: cell-based
Experimental: Agarose microdroplet assay. The agarose microdroplet assay was performed to determine U-937 cellular migration, as previously described. 0.5×10^6 cells/ml U-937 target cells were harvested and washed in HBSS. Cells were spun at 2,000 rpm and were transferred to a graduated 15 ml glass conical tube. The cell concentration was adjusted in agarose medium, prepared from 2% low melting temperature Seaplaque agarose and medium containing 15% FBS, using a 1:4 volume-to-volume dilution. A 1 μl agarose droplet containing 1-10^5 target cells was placed in the center of each well of a 96-well flat-bottom tissue culture plate, in triplicate, using a gastight 0.05 ml Hamilton syringe (Hamilton Company, Reno, Nev.). Droplets were allowed to harden at 4° C. for 20 min. 200 μl chilled test media was applied to each well. […] The plate was incubated for 18-24 h at 37° C. and 5% CO2. Following incubation, the radius of each droplet was determined and target cell migration was measured at four directional points 900 from one another, using an inverted light microscope equipped with a gridded eyepiece, at 40× total magnification. Percent inhibition of each sample was quantified. The plate was incubated for an additional 24 h to measure recovery, and viability was determined by trypan blue exclusion.
Agarose microdroplet assay. The agarose microdroplet assay was performed to determine U-937 cellular migration, as previously described {AdeCXCL121an, 1980 #1609}. 0.5×10^6 cells/ml U-937 target cells were harvested and washed in HBSS. Cells were spun at 2,000 rpm and were transferred to a graduated 15 ml glass conical tube. […] Following incubation, the radius of each droplet was determined and target cell migration was measured at four directional points 900 from one another, using an inverted light microscope equipped with a gridded eyepiece, at 40× total magnification. Percent inhibition of each sample was quantified. The plate was incubated for an additional 24 h to measure recovery, and viability was determined by trypan blue exclusion.

KG1a cells = experiment: Apoptosis assays in KG1a cells expressing CXCR4-YFP; assay type: cell-based, human; conditions: 100 ng/ml
Experimental: Apoptosis assays. KG1a (human acute myelogenous leukemia) cells were assayed for CXCL12-dependent apoptosis as previously described. Briefly, CXCR4 expression on KG1a cells was achieved via transient transfection with a plasmid encoding a CXCR4-YFP fluorescent fusion protein. […] Apoptosis was assayed by staining cells with APC-conjugated annexin V to detect cell-surface phosphatidyl serine (BD Biosciences) or Alexaflour-647-conjugated antibody to detect cleaved PARP (BD Biosciences), and the percentage of YFP+ cells undergoing apoptosis was determined by flow cytometry.

[3] = unsulfated vs sulfated Tyr7 peptide

Compound: Ac-ISIYTSD-NH2 [4ISIYTSD10]
affinity for CXCL12WT relative to the sTyr7 sulfopeptide (CXCL12WT [2]; [3]): two-fold higher affinity
ΔG (CXCL12WT [2]): -3.71 kcal/mol
binding to CXCL121 relative to the sTyr7 sulfopeptide (CXCL121; [3]): roughly five-fold stronger
ΔG (CXCL121): -4.03 kcal/mol
ΔG (CXCL122): -4.60 kcal/mol

Compound: CXCL121: constitutively monomeric CXCL12 variant with L55C and I58C substitutions (SEQ ID NO:2)
extension of the effective chemotactic dose (THP-1 cells): at least 10 fold
extension of the effective chemotactic dose (NALM6 cells): at least 10 fold
extension of the effective chemotactic dose (MiaPaCa2 cells): at least 10 fold
effect on U-937 cell migration (U-937 cells; all tested concentrations, 18-24 h, serum-containing media): significantly enhanced migration
concentration of peak migration enhancement (U-937 cells; bell-shaped dose response): 25 nM
cleavage of PARP (KG1a cells): significantly greater than CXCL122

Compound: CC[C@H](C)[C@H](NC(C)=O)C(=O)N[C@@H](CO)C(=O)N[C@H](C(=O)N[C@@H](Cc1ccc(OS(=O)(=O)O)cc1)C(=O)N[C@H](C(=O)N[C@@H](CO)C(=O)N[C@@H](CC(=O)O)C(N)=O)[C@@H](C)O)[C@@H](C)CC [4ISIsYTSD10] (Ac-ISI[sY]TSD-NH2)
ΔG (CXCL12WT [2]): -3.22 kcal/mol
ΔG (CXCL121): -3.02 kcal/mol
ΔG (CXCL122): -4.65 kcal/mol

Compound: Ac-SGDYDSM-NH2 [18SGDYDSM24]
ΔG (CXCL12WT [2]): -3.50 kcal/mol
ΔG (CXCL121): -3.85 kcal/mol
ΔG (CXCL122): -4.2 kcal/mol and -4.20 kcal/mol

Second part, led by results:

ΔG (CXCL121): -7.43 kcal/mol
ΔG (CXCL122): -8.24 kcal/mol
Compound: CC[C@H](C)[C@H](NC(=O)CNC(=O)[C@H](CCC(=O)O)NC(=O)[C@H](CCSC)NC(=O)[C@H](CCSC)NC(=O)CN)C(=O)N[C@@H](CO)C(=O)N[C@H](C(=O)N[C@@H](Cc1ccc(O)cc1)C(=O)N[C@H](C(=O)N[C@@H](CO)C(=O)N[C@@H](CC(=O)O)C(=O)N[C@@H](CC(N)=O)C(=O)N[C@@H](Cc1ccc(O)cc1)C(=O)N[C@H](C(=O)N[C@@H](CCC(=O)O)C(=O)N[C@@H](CCC(=O)O)C(=O)N[C@@H](CCSC)C(=O)NCC(=O)N[C@@H](CO)C(=O)NCC(=O)N[C@@H](CC(=O)O)C(=O)N[C@@H](Cc1ccc(O)cc1)C(=O)N[C@@H](CC(=O)O)C(=O)N[C@@H](CO)C(=O)N[C@@H](CCSC)C(=O)N[C@@H](CCCCN)C(=O)N[C@@H](CCC(=O)O)C(=O)N1CCC[C@H]1C(=O)N[C@@H](C)C(=O)N[C@@H](Cc1ccccc1)C(=O)N[C@@H](CCCNC(=N)N)C(=O)N[C@@H](CCC(=O)O)C(=O)N[C@@H](CCC(=O)O)C(=O)N[C@@H](CC(N)=O)C(=O)N[C@@H](C)C(=O)N[C@@H](CC(N)=O)C(=O)N[C@@H](Cc1ccccc1)C(=O)N[C@@H](CC(N)=O)C(=O)N[C@@H](CCCCN)C(=O)O)[C@@H](C)O)[C@@H](C)O)[C@@H](C)CC [CXCR41-38]
ΔG (kcal mol^−1) (CXCL12WT [1]): −7.29* kcal mol^−1

ΔG (CXCL12WT [2]): -3.74 kcal/mol
ΔGbind (CXCL121; pathway 1: binding to CXCL12 before dimerization, 298 K): −3.8 kcal mol^−
ΔG (CXCL121): -3.81 kcal/mol
binding to CXCL122 relative to CXCL12WT or CXCL121 (CXCL122; fold stronger): 20 fold
ΔGbind (CXCL122; pathway 2: binding to dimerized CXCL12, 298 K): −5.0 kcal mol^−
binding to CXCL122 relative to the unsulfated variant (CXCL122; sulfated vs unsulfated Tyr21 peptide): four-fold stronger
ΔG (CXCL122): -5.01 kcal/mol
increase of CXCL12 dimerization affinity (CXCL12WT dimerization; by sTyr21 sulfopeptide): eight-fold
coupling energy linking CXCL12 dimerization to sTyr21 pocket binding (CXCL12WT dimerization; first value): −1.2 kcal mol^−
coupling energy linking CXCL12 dimerization to sTyr21 pocket binding (CXCL12WT dimerization; second value): −1.0 kcal mol^−
Compound: CSCC[C@H](NC(=O)[C@H](CO)NC(=O)[C@H](CC(=O)O)NC(=O)[C@H](Cc1ccc(OS(=O)(=O)O)cc1)NC(=O)[C@H](CC(=O)O)NC(=O)CNC(=O)[C@H](CO)NC(C)=O)C(N)=O [18SGDsYDSM24] (Ac-SGD[sY]DSM-NH2)

ΔG (CXCL12WT [2]): -3.65 kcal/mol
ΔG (CXCL121): -3.50 kcal/mol
ΔG (CXCL122): -4.74 kcal/mol
Compound: Ac-SDNYTEE-NH2 [9SDNYTEE15]

ΔG (CXCL12WT [2]): -4.09 kcal/mol
ΔG (CXCL121): -3.74 kcal/mol
ΔG (CXCL122): -4.87 kcal/mol
Compound: CC(=O)N[C@@H](CO)C(=O)N[C@@H](CC(=O)O)C(=O)N[C@@H](CC(N)=O)C(=O)N[C@@H](Cc1ccc(OS(=O)(=O)O)cc1)C(=O)N[C@H](C(=O)N[C@@H](CCC(=O)O)C(=O)N[C@@H](CCC(=O)O)C(N)=O)[C@@H](C)O [9SDNsYTEE15] (Ac-SDN[sY]TEE-NH2)
